Results on nine compounds are retold here after patent publication US20250064945A1 (Arvinas Operations, Inc., priority 2021, published 2025).

The target in this test is T1, BRM (Homo sapiens, UniProt P51531).
T1 construct: In-Cell Western Screen of BRM Degradation in SW1573 Cells; endogenous in cells; host or cells: SW1573 cells
The test is described as follows: Western blot / In-Cell Western screen of BRM degradation in SW1573 cells. The following applies: overnight (18-20 hours) treatment; for Dmax: read-out: Dmax (%) (% degraded). It is filed as cell-based. How it is done: Western Blot Screen of BRM Degradation in SW1573 Cells
To assess BRM degradation (Dmax and DC50) cells were seeded at 8000/well in 96-well black/clear-bottom plates in 180 μL DMEM growth media (containing 1% pen-strep, 1% HEPES and 10% FBS) per well. Plates were incubated overnight to allow adhesion. The next morning cells were treated by adding 20 μL of 10× target compound concentration (1% DMSO) to appropriate wells and returned to incubator for overnight (18-20 hours). The final DMSO concentration was 0.1%.
For lysing, adherent cells were washed once with 100 μL of DPBS. Cells were lysed in 40 μL of 1× RIPA+HALT protease inhibitor on ice for 10 minutes and frozen until use at −80° C. Thawed lysates were cleaned by filtration in 1.2 µm filter plates, or alternatively, were spun clean at 2300 g at 4° C. for 30 minutes.
For blotting, for each Western sample 30 μL of lysate was added to 10 μL of 4×LDS sample buffer, then denatured at 95° C. for 5 minutes in the thermal cycler and placed on ice. Samples were loaded on 4-15% Tris/Glycine gels and run for 25 minutes at 250 constant volts in 1×Tris/Glycine buffer with 4 μL of ladder and 12 μL of each sample loaded for each blot. Protein was transferred from gels to NC with BioRad Turbo dry-transfer unit with the Turbo/midi default program. All blots were rinsed with ddH2O and blocked for 1 hour at room temperature in 5% BSA in TBST (0.1%) on rocker. Blots were exposed to primary antibody in 5% BSA in TBST (0.1%) overnight at 4° C. on rocker (1:1000 for BRM (Cell Signaling Tech. cat #11966) and 1:2000 for alpha-tubulin (Cell Signaling Tech. cat #3873), a control protein. Blot was washed with TBST (0.1%) three times for 5 minutes on rocker at room temperature. Secondary antibody was added, and blots were incubated on a room temperature rocker for 1 hour with 1:18,000 anti-rabbit-HRP and/or anti-mouse-HRP in 5% BSA in TBST (0.1%). Blots were washed three times in TBST (0.1%) for 5 minutes at room temperature on the rocker. Signal was developed with Femto Maximum Sensitivity substrate for 4 minutes and blots read on ChemiDoc™.
In-Cell Western Screen of BRM Degradation in SW1573 Cells
To assess BRM degradation (Dmax and DC50), cells were seeded at 8000/well in 96-well black/clear-bottom plates in 180 μL DMEM growth media (containing 1% pen-strep, 1% HEPES and 10% FBS) per well. Plates were incubated overnight to allow adhesion. The next morning cells were treated by adding 20 μL of 10× compound (1% DMSO) to appropriate wells and returned to incubator for overnight (18-20 hours). The final DMSO concentration was 0.1%.
For processing, the plates were removed from incubator, the media was removed, and immediately 200 μL of cold (4° C.) DPBS was added to all wells. DPBS was then removed, and 50 μL of 4% paraformaldehyde (PFA) in DPBS (4° C.) was added to all wells, and the plates were incubated at room temperature for 20 minutes. PFA was then removed, and 200 μL of TBS-T containing 0.5% Triton X-100 was added to all wells, and the plates were incubated at room temperature for 30 minutes. TBS-T containing 0.5% Triton X-100 was then removed, and 50 μL of Li-Cor blocking solution was added, and the plates were incubated at room temperature for a minimum of one hour. The blocking solution was removed, and 50 μL of Li-Cor blocking solution containing primary antibody cocktail was added (1:1000 for BRM (Cell Signaling Tech. cat #11966) and 1:2000 for alpha-tubulin (Sigma cat #T6074), a control protein. Plates were then placed in cold room until the next day.
The next day plates were washed three times with TBS-T, 200 μL per well. Fifty […] of secondary antibody cocktail in LI-COR blocking solution (anti-rabbit_800 nm and anti-mouse_680 nm) was added to all wells (diluted 1:5000). The plates were incubated at room temperature for at least one hour while protected from light. The plates were washed twice with TBS-T, 200 μL per well. […]
(Immunoblotting shows a protein as a band on a membrane.)

T1 sequence (P51531 whole entry): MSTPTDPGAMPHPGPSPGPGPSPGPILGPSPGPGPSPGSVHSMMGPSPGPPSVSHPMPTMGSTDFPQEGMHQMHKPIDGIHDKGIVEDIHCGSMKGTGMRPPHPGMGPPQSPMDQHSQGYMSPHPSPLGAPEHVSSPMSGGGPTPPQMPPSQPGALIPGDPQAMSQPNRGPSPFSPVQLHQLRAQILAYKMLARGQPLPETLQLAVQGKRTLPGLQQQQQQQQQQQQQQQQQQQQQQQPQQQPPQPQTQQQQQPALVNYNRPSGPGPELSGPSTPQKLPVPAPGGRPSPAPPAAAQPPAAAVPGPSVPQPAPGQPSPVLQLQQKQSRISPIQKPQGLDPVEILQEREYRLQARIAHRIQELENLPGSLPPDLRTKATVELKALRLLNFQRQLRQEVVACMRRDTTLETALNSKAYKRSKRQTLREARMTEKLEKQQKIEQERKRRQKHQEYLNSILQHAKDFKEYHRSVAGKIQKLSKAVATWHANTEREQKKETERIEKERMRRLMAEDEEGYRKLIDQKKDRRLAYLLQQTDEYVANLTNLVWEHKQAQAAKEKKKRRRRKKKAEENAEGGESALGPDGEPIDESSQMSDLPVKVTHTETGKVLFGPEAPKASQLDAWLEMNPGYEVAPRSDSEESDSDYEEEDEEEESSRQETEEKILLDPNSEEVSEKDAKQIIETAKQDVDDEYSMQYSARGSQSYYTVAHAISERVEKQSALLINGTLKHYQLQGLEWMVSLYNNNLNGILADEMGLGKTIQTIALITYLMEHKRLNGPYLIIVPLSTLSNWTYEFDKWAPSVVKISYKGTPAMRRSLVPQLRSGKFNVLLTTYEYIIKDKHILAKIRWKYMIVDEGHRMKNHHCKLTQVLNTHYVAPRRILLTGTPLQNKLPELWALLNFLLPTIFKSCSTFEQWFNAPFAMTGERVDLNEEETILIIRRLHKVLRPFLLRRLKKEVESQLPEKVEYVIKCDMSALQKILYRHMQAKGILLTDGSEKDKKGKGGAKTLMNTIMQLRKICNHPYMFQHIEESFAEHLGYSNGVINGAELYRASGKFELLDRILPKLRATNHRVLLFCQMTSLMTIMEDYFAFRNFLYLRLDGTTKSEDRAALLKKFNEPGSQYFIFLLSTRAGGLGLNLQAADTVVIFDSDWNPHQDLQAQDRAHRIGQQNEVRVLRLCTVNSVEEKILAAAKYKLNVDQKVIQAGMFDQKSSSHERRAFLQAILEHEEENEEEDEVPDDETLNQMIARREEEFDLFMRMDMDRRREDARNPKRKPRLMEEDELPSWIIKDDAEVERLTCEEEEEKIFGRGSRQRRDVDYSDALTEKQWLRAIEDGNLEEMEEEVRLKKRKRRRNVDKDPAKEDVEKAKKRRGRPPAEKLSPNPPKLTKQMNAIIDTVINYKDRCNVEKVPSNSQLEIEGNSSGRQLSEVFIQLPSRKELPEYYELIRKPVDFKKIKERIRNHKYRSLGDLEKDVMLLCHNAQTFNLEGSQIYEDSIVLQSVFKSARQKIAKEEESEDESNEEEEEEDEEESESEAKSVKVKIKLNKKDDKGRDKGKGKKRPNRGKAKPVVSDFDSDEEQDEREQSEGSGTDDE

In the case of `Cc1ncsc1-c1ccc([C@H](C)NC(=O)[C@@H]2C[C@@H](O)CN2C(=O)[C@@H](c2cc(N3CCC(CN4CCC(O[C@H]5C[C@H](n6cnc(CN7C8CCC7CN(c7cc(-c9ccccc9O)nnc7N)C8)c6)C5)CC4)CC3)no2)C(C)C)cc1` (relative stereo) [Compound 10, (2S,4R)-4-hydroxy-N-[(1S)-1-[4-(4-methyl-1,3-thiazol-5-yl)phenyl]ethyl]-1-[(2R*)-3-methyl-2-{3-[4-({4-[(1r,3r)-3-[4-({3-[3-amino-6-(2-hydroxyphenyl)pyridazin-4-yl]-3,8-diazabicyclo[3.2.1]octan-8-yl}methyl)-1H-imidazol-1-yl]cyclobutoxy]piperidin-1-yl}methyl)piperidin-1-yl]-1,2-oxazol-5-yl}butanoyl]pyrrolidine-2-carboxamide], the DC50 – broadly, the concentration giving 50% degradation – is < 2.5 nM and the Dmax – broadly, the greatest extent of degradation seen – was > 75%.

Turning to `Cc1ncsc1-c1ccc([C@H](C)NC(=O)[C@@H]2C[C@@H](O)CN2C(=O)[C@@H](c2cc(N3CCC(CN4CCC(O[C@H]5C[C@H](Oc6cc(CCc7cc(-c8ccccc8O)nnc7N)ccn6)C5)CC4)CC3)no2)C(C)C)cc1` [Compound 1, (2S,4R)-4-hydroxy-N-[(1S)-1-[4-(4-methyl-1,3-thiazol-5-yl)phenyl]ethyl]-1-[(2R)-3-methyl-2-{3-[4-({4-[(1r,3r)-3-[(4-{2-[3-amino-6-(2-hydroxyphenyl)pyridazin-4-yl]ethyl}pyridin-2-yl)oxy]cyclobutoxy]piperidin-1-yl}methyl)piperidin-1-yl]-1,2-oxazol-5-yl}butanoyl]pyrrolidine-2-carboxamide], the DC50 lay in the range of 2.5 to 10 nM and the Dmax is > 75%.

As to `Cc1ncsc1-c1ccc([C@H](C)NC(=O)[C@@H]2C[C@@H](O)CN2C(=O)[C@@H](c2cc(N3CCC(CN4CCC(O[C@H]5C[C@H](Oc6cc(CC(F)c7cc(-c8ccccc8O)nnc7N)ccn6)C5)CC4)CC3)no2)C(C)C)cc1` (stereo partly drawn) [Compound 2, (2S,4R)-4-hydroxy-N-[(1S)-1-[4-(4-methyl-1,3-thiazol-5-yl)phenyl]ethyl]-1-[(2R)-3-methyl-2-{3-[4-({4-[(1r,3r)-3-[(4-{2-[3-amino-6-(2-hydroxyphenyl)pyridazin-4-yl]-2-fluoroethyl}pyridin-2-yl)oxy]cyclobutoxy]piperidin-1-yl}methyl)piperidin-1-yl]-1,2-oxazol-5-yl}butanoyl]pyrrolidine-2-carboxamide], the half-maximal degradation concentration (DC50) was 2.5 to 10 nM and the Dmax is > 75%.

Turning to `Cc1ncsc1-c1ccc([C@H](C)NC(=O)[C@@H]2C[C@@H](O)CN2C(=O)[C@@H](c2cc(N3CCC(CN4CCC(O[C@H]5C[C@H](n6cnc(CN7C8CCC7CN(c7cc(-c9ccccc9O)nnc7N)C8)c6)C5)CC4)CC3)no2)C(C)C)cc1` [Compound 3, (2S,4R)-4-hydroxy-N-[(1S)-1-[4-(4-methyl-1,3-thiazol-5-yl)phenyl]ethyl]-1-[(2R)-3-methyl-2-{3-[4-({4-[(1r,3r)-3-[4-({3-[3-amino-6-(2-hydroxyphenyl)pyridazin-4-yl]-3,8-diazabicyclo[3.2.1]octan-8-yl}methyl)-1H-imidazol-1-yl]cyclobutoxy]piperidin-1-yl}methyl)piperidin-1-yl]-1,2-oxazol-5-yl}butanoyl]pyrrolidine-2-carboxamide], the 50% degradation concentration (DC50) is < 2.5 nM and the Dmax is > 75%.

With `Cc1ncsc1-c1ccc([C@H](C)NC(=O)[C@@H]2C[C@@H](O)CN2C(=O)[C@@H](c2cc(N3CCC(CN4CCC(O[C@H]5C[C@H](Oc6cc(N7CCN(c8cc(-c9ccccc9O)nnc8N)CC78COC8)ccn6)C5)CC4)CC3)no2)C(C)C)cc1` [Compound 4, (2S,4R)-4-hydroxy-N-[(1S)-1-[4-(4-methyl-1,3-thiazol-5-yl)phenyl]ethyl]-1-[(2R)-3-methyl-2-{3-[4-({4-[(1r,3r)-3-[(4-{8-[3-amino-6-(2-hydroxyphenyl)pyridazin-4-yl]-2-oxa-5,8-diazaspiro[3.5]nonan-5-yl}pyridin-2-yl)oxy]cyclobutoxy]piperidin-1-yl}methyl)piperidin-1-yl]-1,2-oxazol-5-yl}butanoyl]pyrrolidine-2-carboxamide], the 50% degradation concentration (DC50) is < 2.5 nM and the Dmax is > 75%.

Consider `Cc1ncsc1-c1ccc([C@H](C)NC(=O)[C@@H]2C[C@@H](O)CN2C(=O)[C@@H](c2cc(N3CCC(CN4CCC(O[C@H]5C[C@H](N6CCC(O[C@H]7C[C@H](C#Cc8cc(-c9ccccc9O)nnc8N)C7)CC6)C5)CC4)CC3)no2)C(C)C)cc1` [Compound 5, (2S,4R)-4-hydroxy-N-[(1S)-1-[4-(4-methyl-1,3-thiazol-5-yl)phenyl]ethyl]-1-[(2R)-3-methyl-2-{3-[4-({4-[(1r,3r)-3-(4-[(1r,3r)-3-{2-[3-amino-6-(2-hydroxyphenyl)pyridazin-4-yl]ethynyl}cyclobutoxy]piperidin-1-yl}cyclobutoxy]piperidin-1-yl}methyl)piperidin-1-yl]-1,2-oxazol-5-yl}butanoyl]pyrrolidine-2-carboxamide], for which the DC50 was < 2.5 nM and the Dmax is > 75%.

Consider `Cc1ncsc1-c1ccc([C@H](C)NC(=O)[C@@H]2C[C@@H](O)CN2C(=O)[C@@H](c2cc(N3CCC(CN4CCC(O[C@H]5C[C@H](Oc6cc(N7CCN(c8cc(-c9ccccc9O)nnc8N)CC78CC8)ccn6)C5)CC4)CC3)no2)C(C)C)cc1` [Compound 6, (2S,4R)-4-hydroxy-N-[(1S)-1-[4-(4-methyl-1,3-thiazol-5-yl)phenyl]ethyl]-1-[(2R)-3-methyl-2-{3-[4-({4-[(1r,3r)-3-[(4-{7-[3-amino-6-(2-hydroxyphenyl)pyridazin-4-yl]-4,7-diazaspiro[2.5]octan-4-yl}pyridin-2-yl)oxy]cyclobutoxy]piperidin-1-yl}methyl)piperidin-1-yl]-1,2-oxazol-5-yl}butanoyl]pyrrolidine-2-carboxamide], for which the 50% degradation concentration (DC50) is < 2.5 nM and the Dmax was > 75%.

With `Cc1ncsc1-c1ccc([C@H](C)NC(=O)[C@@H]2C[C@@H](O)CN2C(=O)[C@@H](c2cc(N3CCC(CN4CCC(O[C@H]5C[C@H](Oc6cc(N7C[C@@H]8CN(c9cc(-c%10ccccc%10O)nnc9N)C[C@@H]8C7)ccn6)C5)CC4)CC3)no2)C(C)C)cc1` [Compound 7, (2S,4R)-4-hydroxy-N-[(1S)-1-[4-(4-methyl-1,3-thiazol-5-yl)phenyl]ethyl]-1-[(2R)-3-methyl-2-{3-[4-({4-[(1r,3r)-3-({4-[(3aR,6aS)-5-[3-amino-6-(2-hydroxyphenyl)pyridazin-4-yl]-octahydropyrrolo[3,4-c]pyrrol-2-yl]pyridin-2-yl}oxy)cyclobutoxy]piperidin-1-yl}methyl)piperidin-1-yl]-1,2-oxazol-5-yl}butanoyl]pyrrolidine-2-carboxamide], the DC50 was < 2.5 nM and the Dmax was > 75%.

For `Cc1ncsc1-c1ccc([C@H](C)NC(=O)[C@@H]2C[C@@H](O)CN2C(=O)[C@@H](c2cc(N3CCC(CN4CCC(O[C@H]5C[C@H](n6ccnc6CN6C7CCC6CN(c6cc(-c8ccccc8O)nnc6N)C7)C5)CC4)CC3)no2)C(C)C)cc1` [Compound 8, (2S,4R)-4-hydroxy-N-[(1S)-1-[4-(4-methyl-1,3-thiazol-5-yl)phenyl]ethyl]-1-[(2R)-3-methyl-2-{3-[4-({4-[(1r,3r)-3-[2-({3-[3-amino-6-(2-hydroxyphenyl)pyridazin-4-yl]-3,8-diazabicyclo[3.2.1]octan-8-yl}methyl)-1H-imidazol-1-yl]cyclobutoxy]piperidin-1-yl}methyl)piperidin-1-yl]-1,2-oxazol-5-yl}butanoyl]pyrrolidine-2-carboxamide], the DC50 was < 2.5 nM and the Dmax was > 75%.
